# Reference: patent US12378247B2, “Mesylate salt of para-topolin, compositions containing said salt and use thereof” (USTAV EXPERIMENTALNI BOTANIKY AV CR, V. V. I., priority 2020, dated 2025)
# Structures can show the parent of a compound that is named as a salt.
# Key:
# [1] = Pharmacokinetics / bioavailability upon intraduodenal administration in rats; type: in vivo, male Sprague-Dawley rats; settings: rat
# Method: Preparation of Dosing Solutions for In-Vivo Study: Para-topolin and para-topolin mesylate salt were stored at room temperature under desiccant and protected from light. The dosing solutions were prepared fresh from powders on the day of dosing. The dosing solution for intravenous administration (IV) was prepared at 1 mg/mL (free acid) in 50:50 DMSO: saline. The dosing solution for intraduodenal administration (ID) was prepared at 2 mg/mL in a 0.2% sodium carboxymethyl cellulose (Na CMC) aqueous solution.
# Administration to Animals: The pharmacokinetics of para-topolin base and mesylate was evaluated in fasted male Sprague-Dawley rats. […]
# Each blood sample was collected from the rats via a jugular vein cannula and placed into chilled polypropylene tubes containing sodium heparin as an anticoagulant. […] The total concentration of para-topolin in plasma samples were analyzed by LC-MS/MS after an overnight incubation with glucuronidase/arylsulfatase enzyme mixture. Pharmacokinetic parameters were calculated using the WinNonlin software.
# Analysis of Plasma Samples: An LC-MS/MS analytical method for the determination of […] in rat plasma was developed (Novák et al., Phytochemistry, 69, 2008:2214-2224). Prior to sample analysis, a standard curve was analyzed to determine the specificity, range, and linearity of the method. […]
# [2] = Calcein AM cytotoxicity assay, HELA; type: cell-based; settings: human, HeLa cells (cervical carcinoma), 3-day Calcein-AM assay, read-out: Cytotoxic activity IC50
# From the text: (§1) Because toxic compounds negatively influence metabolic processes of cells, many standard cytotoxicity assays are based on measurement of metabolisation rate of various artificial substrates. Resulting product is then quantified, for example, by means of spectrometry. The assays can be easily modified for use in 96-well plates. For evaluation of cytotoxicity of the […] of this invention, a microtiter assay based on quantification of metabolisation of Calcein AM was used. The assay is widely used in drug screening programs and in chemosensitivity testing. In live cells, Calcein AM is enzymatically hydrolysed and accumulation of the resulting calcein is manifested by green fluorescence. […]
# (§2) Approximately 10,000 cells in 80 μL of medium were seeded into 96-well microtitre plates. […] The fluorescence of free calcein was then quantified using a Fluoroscan Ascent fluorometer (Microsystems), and the percentage of surviving cells in each well was calculated by dividing the OD obtained from each cell with exposed cells by the mean OD obtained from control wells×100%. […]
# [3] = Calcein AM cytotoxicity assay, HOS; type: cell-based, human; settings: human, HOS cells (osteosarcoma), 3-day Calcein-AM assay, read-out: Cytotoxic activity IC50
# From the text: as §1, §2
# [4] = Calcein AM cytotoxicity assay, K562; type: cell-based; settings: human, K562 cells (chronic myelogenous leukaemia), K562, 3-day Calcein-AM assay; read-out: Cytotoxic activity IC50
# From the text: as §1, §2
# [5] = Calcein AM cytotoxicity assay, MCF7; type: cell-based; settings: human, MCF-7 cells (breast adenocarcinoma); MCF7, 3-day Calcein-AM assay; read-out: Cytotoxic activity IC50
# From the text: as §1, §2
# [6] = test system: HeLa (cervical carcinoma); test: Calcein AM cytotoxicity assay, HELA; type: cell-based; settings: 3-day Calcein-AM assay, read-out: Cytotoxic activity IC50
# From the text: as §1, §2
# HOS (human osteosarcoma) = test: Calcein AM cytotoxicity assay, HOS; type: cell-based; settings: 3-day Calcein-AM assay, read-out: Cytotoxic activity IC50
# From the text: as §1, §2
# [7] = test system: K562 (chronic myelogenous leukaemia); test: Calcein AM cytotoxicity assay, K562; type: cell-based; settings: K562, 3-day Calcein-AM assay; read-out: Cytotoxic activity IC50
# From the text: as §1, §2
# [8] = test system: MCF-7 (breast adenocarcinoma); test: Calcein AM cytotoxicity assay, MCF7; type: cell-based; settings: MCF7, 3-day Calcein-AM assay; read-out: Cytotoxic activity IC50
# From the text: as §1, §2
Compound,time after ID dosing at which Cmax was observed [1] [min],IC50 at 72 h [2] [µM],IC50 at 72 h [3] [µM],IC50 at 72 h [4] [µM],IC50 at 72 h [5] [µM],IC50 [6] [µM],IC50 (HOS (human osteosarcoma)) [µM],IC50 [7] [µM],IC50 [8] [µM]
"Oc1ccc(CNc2ncnc3nc[nH]c23)cc1 [para-topolin mesylate, 6-(4-hydroxybenzylamino) purine (para-topolin) mesylate (methylsulphonate)]",≤ 15,> 167,> 167,> 167,> 167,,,,
"Oc1ccc(CNc2ncnc3nc[nH]c23)cc1 [para-topolin, 6-(4-Hydroxybenzylamino) purine]",,,,,,> 167,> 167,140,> 167
